According to patent publication US7947669B2, “Agent for improving insulin resistance” (Morinaga Milk Industry Co., Ltd., priority 2005, dated 2011):

Key:
Format in all cases: in vivo
MCP-1 = assay: Production quantity of MCP-1 of adipose tissues from treated high-fat diet AKR mice (ELISA); conditions: 60th day, 25 μg/kg oral once a day; for inhibitory effect on the production of MCP-1 compared with negative sample: adipose tissue, Tukey-Kramer's test; for MCP-1: culture supernatant of epididymal fat tissue after 1 hour culture
Procedure: (§1) This example was performed in order to evaluate an effect of the agent for improving insulin resistance of the present invention on production quantities of TNF-α and MCP-1 in each cell of adipose tissue by using AKR mice in which insulin resistance is induced by feeding with a high-fat diet.
(§2) In Example 2, the same Test Samples 1, 2 and the negative sample as those prepared in Example 1 were used.
(§3) These mice were divided into groups, each consisting of 8 mice. […] After 1 hour of the culture, culture supernatants were collected, and concentrations of TNF-α and MCP-1 in the culture supernatants were measured by ELISA method (Biosource).

[1] = system: AKR mice in which insulin resistance is induced by feeding with a high-fat diet; assay: Level of free fatty acid in serum of high-fat diet AKR mice; conditions: for Test Sample/Negative sample (free fatty acid): serum free fatty acid relative to negative sample, 60th day, 25 μg/kg oral once a day; for Free fatty acid: serum, fasting, 60th day of oral administration 25 μg/kg of body weight once a day, AKR mice on high-fat diet
Procedure: Each of 9,19-cyclolanostan-3-ol and 24-methylene-9,19-cyclolanostan-3-ol produced in Preparation Example 3 was dissolved in DMSO, and each concentration was adjusted to 1 μg/ml with distilled water to thereby prepare Test Samples 1 and 2.
These mice were divided into groups, each consisting of 8 mice.

TNF-α = assay: Production quantity of TNF-α of adipose tissues from treated high-fat diet AKR mice (ELISA); conditions: 60th day, 25 μg/kg oral once a day; for inhibitory effect on the production of TNF-α compared with negative sample: adipose tissue, Tukey-Kramer's test; for TNF-α: culture supernatant of epididymal fat tissue after 1 hour culture
Procedure: as §1, §2, §3

[2] = system: AKR mice in which insulin resistance is induced by feeding with a high-fat diet; assay: Insulin tolerance test in high-fat diet AKR mice; conditions: 45th day, 25 μg/kg oral once a day, 4 h fast, human insulin 0.75 U/Kg i.p., up to 60 minutes (FIG. 1)
Procedure: This example was performed in order to evaluate an enhancing effect of the agent for improving insulin resistance of the present invention on insulin sensitivity by performing an insulin tolerance test using AKR mice in which insulin resistance is induced by feeding with a high-fat diet.
In Example 3, the same Test Samples 1, 2 and the negative sample as those prepared in Examples 1 and 2 were used.
These mice were divided into groups, each consisting of 8 mice. […] In the present example, the insulin tolerance test was performed in such a manner that: the mice were fasted for 4 hours, and were then intraperitoneally administered with 0.75 U/Kg of body weight of a human insulin (Eli Lily and Company); and changes with time in blood glucose level were measured from the initiation of the administration of the insulin to after 60 minutes later.

C=C(CCC(C)C1CCC2(C)C3CCC4C(C)(C)C(O)CCC45CC35CCC12C)C(C)C (centres unmarked) [Test Sample 2, 24-methylene-9,19-cyclolanostan-3-ol]
inhibitory effect on the production of MCP-1 compared with negative sample (MCP-1): significant inhibitory effects | MCP-1 (MCP-1): 99.32 ± 7.80 pg/mL | Test Sample/Negative sample (free fatty acid) [1]: 81.1% | Free fatty acid [1]: 1.20 ± 0.25 mEq/l | inhibitory effect on the production of TNF-α compared with negative sample (TNF-α): significant inhibitory effects | TNF-α (TNF-α): 33.59 ± 0.59 pg/mL | change in blood glucose level after insulin administration [2]: rapid decrease in blood glucose levels

CC(C)CCCC(C)C1CCC2(C)C3CCC4C(C)(C)C(O)CCC45CC35CCC12C (centres unmarked) [Test Sample 1, 9,19-cyclolanostan-3-ol]
inhibitory effect on the production of MCP-1 compared with negative sample (MCP-1): significant inhibitory effects | MCP-1 (MCP-1): 89.83 ± 6.16 pg/mL | Test Sample/Negative sample (free fatty acid) [1]: 81.1% | Free fatty acid [1]: 1.20 ± 0.38 mEq/l | inhibitory effect on the production of TNF-α compared with negative sample (TNF-α): significant inhibitory effects | TNF-α (TNF-α): 29.80 ± 2.58 pg/mL | change in blood glucose level after insulin administration [2]: rapid decrease in blood glucose levels
